Test results published in ChEMBL document CHEMBL2202984, “16-morpholino quaternary ammonium steroidal derivatives as neuromuscular blocking agents: synthesis, biological evaluation and in silico probe of ligand-receptor interaction” (Eur J Med Chem, 2012).
Calls of active or inactive are those of the source. No cut-off for these calls is given here.

Legend:
[1] = (§1) Inhibition of nAChR-mediated twitch response in mouse hemidiaphragm
Mus musculus [2] = species: Mus musculus; experiment: as §1
Mus musculus [3] = species: Mus musculus; experiment: Inhibition of nAChR-mediated twitch response in mouse hemidiaphragm at IC90 in presence of neostigmine bromide

Compound: CC(=O)O[C@H]1CC[C@@]2(C)[C@@H](CC[C@@H]3[C@@H]2CC[C@@]2(C)[C@H]3C[C@H]([N+]3(C)CCOCC3)[C@@H]2OC(C)=O)C1
- IC50 [1]: 19.8 µM
- IC90 (Mus musculus [2]): 29.4 µM

Compound: C[C@]12CC[C@H]([N+]3(C)CCOCC3)C[C@@H]1CC[C@@H]1[C@@H]2CC[C@]2(C)[C@@H](O)[C@@H]([N+]3(C)CCOCC3)C[C@@H]12
- IC50 [1]: 38.9 µM

Compound: C[C@]12CC[C@H]([N+]3(C)CCCCC3)C[C@@H]1CC[C@@H]1[C@@H]2CC[C@]2(C)[C@@H](O)[C@@H]([N+]3(C)CCOCC3)C[C@@H]12
- IC50 [1]: 13.6 µM

Compound: C[C@]12CC[C@H](N3CC[N+](C)(C)CC3)C[C@@H]1CC[C@@H]1[C@@H]2CC[C@]2(C)[C@@H](O)[C@@H]([N+]3(C)CCOCC3)C[C@@H]12
- IC50 [1]: 24.5 µM

Compound: CC(=O)O[C@H]1[C@@H]([N+]2(C)CCOCC2)C[C@H]2[C@@H]3CC[C@H]4C[C@H]([N+](C)(C)C)CC[C@]4(C)[C@H]3CC[C@@]21C
- IC50 [1]: 17.4 µM

Compound: CC(=O)O[C@H]1[C@@H]([N+]2(C)CCOCC2)C[C@H]2[C@@H]3CC[C@H]4C[C@@H]([N+]5(C)CCCCC5)CC[C@]4(C)[C@H]3CC[C@@]21C
- inhibition (Mus musculus [3]): inactive
- IC50 [1]: 3.49 µM
- IC90 (Mus musculus [2]): 5.46 µM

Compound: CC(=O)O[C@H]1[C@@H]([N+]2(C)CCOCC2)C[C@H]2[C@@H]3CC[C@H]4C[C@@H]([N+](C)(C)c5ccccc5)CC[C@]4(C)[C@H]3CC[C@@]21C
- IC50 [1]: 12.7 µM
- IC90 (Mus musculus [2]): 18.2 µM

Compound: CC(=O)O[C@H]1[C@@H]([N+]2(C)CCOCC2)C[C@H]2[C@@H]3CC[C@H]4C[C@@H](N5CC[N+](C)(C)CC5)CC[C@]4(C)[C@H]3CC[C@@]21C
- IC50 [1]: 13.1 µM
- IC90 (Mus musculus [2]): 18.6 µM

Compound: CC(=O)O[C@H]1[C@@H]([N+]2(C)CCOCC2)C[C@H]2[C@@H]3CC[C@H]4C[C@@H]([N+]5(C)CCOCC5)CC[C@]4(C)[C@H]3CC[C@@]21C
- IC50 [1]: 33.9 µM
- IC90 (Mus musculus [2]): 50.7 µM

Compound: CC(=O)O[C@H]1[C@@H]([N+]2(C)CCOCC2)C[C@H]2[C@@H]3CC[C@H]4C[C@@H]([N+]5(C)CCCC5)CC[C@]4(C)[C@H]3CC[C@@]21C
- IC50 [1]: 10.7 µM
- IC90 (Mus musculus [2]): 15.7 µM

Compound: CC(=O)O[C@H]1[C@@H]([N+]2(C)CCOCC2)C[C@H]2[C@@H]3CC[C@H]4C[C@@H]([N+](C)(C)C)CC[C@]4(C)[C@H]3CC[C@@]21C
- IC50 [1]: 16.6 µM
- IC90 (Mus musculus [2]): 25 µM

Compound: C[C@]12CC[C@H]([N+](C)(C)Cc3ccccc3)C[C@@H]1CC[C@@H]1[C@@H]2CC[C@]2(C)[C@@H](O)[C@@H]([N+]3(C)CCOCC3)C[C@@H]12
- IC50 [1]: 18.5 µM

Compound: C=CC[N+]1([C@H]2C[C@H]3[C@@H]4CC[C@H]5C[C@H](O)[C@@H](N6CCOCC6)C[C@]5(C)[C@H]4CC[C@]3(C)[C@H]2OC(C)=O)CCCC1 [ROCURONIUM BROMIDE]
- IC50 [1]: 2.5 µM
- IC90 (Mus musculus [2]): 3.53 µM

Compound: CC(=O)O[C@H]1[C@@H]([N+]2(C)CCOCC2)C[C@H]2[C@@H]3CC[C@H]4C[C@H](N5CC[N+](C)(C)CC5)CC[C@]4(C)[C@H]3CC[C@@]21C
- IC50 [1]: 39.1 µM

Compound: CC(=O)O[C@H]1C[C@@H]2CC[C@@H]3[C@H](CC[C@@]4(C)[C@H]3C[C@H]([N+]3(C)CCCCC3)[C@@H]4OC(C)=O)[C@@]2(C)C[C@@H]1N1CCCCC1 [VECURONIUM BROMIDE]
- IC50 [1]: 0.31 µM
- IC90 (Mus musculus [2]): 0.44 µM

Compound: C[C@]12CC[C@H]([N+]3(C)CCCC3)C[C@@H]1CC[C@@H]1[C@@H]2CC[C@]2(C)[C@@H](O)[C@@H]([N+]3(C)CCOCC3)C[C@@H]12
- IC50 [1]: 27.6 µM

Compound: CC(=O)O[C@H]1[C@@H]([N+]2(C)CCOCC2)C[C@H]2[C@@H]3CC[C@H]4C[C@@H]([N+](C)(C)Cc5ccccc5)CC[C@]4(C)[C@H]3CC[C@@]21C
- inhibition (Mus musculus [3]): inactive
- IC50 [1]: 4.54 µM
- IC90 (Mus musculus [2]): 6.38 µM

Compound: C[C@]12CC[C@H]([N+](C)(C)C)C[C@@H]1CC[C@@H]1[C@@H]2CC[C@]2(C)[C@@H](O)[C@@H]([N+]3(C)CCOCC3)C[C@@H]12
- IC50 [1]: 21.4 µM

Compound: CC(=O)O[C@H]1[C@@H]([N+]2(C)CCOCC2)C[C@H]2[C@@H]3CC[C@H]4C[C@H]([N+]5(C)CCCC5)CC[C@]4(C)[C@H]3CC[C@@]21C
- IC50 [1]: 18.6 µM

Compound: C[C@]12CC[C@H]([N+](C)(C)c3ccccc3)C[C@@H]1CC[C@@H]1[C@@H]2CC[C@]2(C)[C@@H](O)[C@@H]([N+]3(C)CCOCC3)C[C@@H]12
- IC50 [1]: 16.2 µM
